Consider 3 molecules from patent US9689017B2, “Method of semi-solid state fermentation for producing surfactin from a mutant strain of Bacillus subtilis subsp” (priority 2014, dated 2017).

In brackets after ≈: the same amount, converted by molar mass. Read-outs that look alike come from different tables or passages of the source. Starred links: 1 amine or outer side, 2 acyl side, 3 side chain; linkers in the order of their positions; H or OH if unused. Positions of bridges follow the written chain, without caps; N, C: chain ends. Non-standard residues stand in square brackets, D forms with d. Residues, ends and D or L forms follow the SMILES beside them. X1 = CC(C)CCCCCCCCC[C@H](CC(=O)[*:1])O[*:2]

For one test, the system named is Aeromonas hydrophila. As to the kind of experiment: Antimicrobial test for surfactin (MIC, 96-well broth dilution). As to conditions: 16 hrs at 37° C., read-out: minimum inhibitory concentration (MIC). The class given is cell-based. How it is done: (§1) Escherichia coli DH5α, Vibrio harveyi, Vibrio alginolyticus, Vibrio anguillarum, Vibrio salmonicida, Aeromonas hydrophila and Staphylococcus epidermidis are separately inoculate onto LBA (E. coli DH5α) or TSA (+1.5% NaCl) and incubate at 37° C. for 16 hrs. Scrap off and dissolve the colonies in designated medium. When OD540 is at 1 (the concentration is around 1×10^9 colonies/c.c.), take 500 μl of the bacterial culture and add to 500 μl of LB or TSB (+1.5% NaCl) to make the bacterial concentration at […]; add 130 μl of the bacterial culture to each well of a 96-well plate, the concentration of bacterial culture is 1×10^4.5 colonies/c.c., before addition of 20 μl of chemically synthesized antimicrobial peptides at various concentrations. After 16 hrs of incubation at 37° C., the bacterial culture that is clear indicates the lowest concentration of the antimicrobial peptide, that is, minimum inhibitory concentration (MIC).

Another test has as its system Vibrio salmonicida. The test is described as above. The class given is cell-based. The following applies: 16 hrs at 37° C., read-out: minimum inhibitory concentration (MIC). Here is the method: as §1
In the next test the test system is Vibrio harveyi. The description is as above. It counts as cell-based. The following applies: 16 hrs at 37° C., read-out: minimum inhibitory concentration (MIC). How it is done: as §1
In another test the test system is Vibrio alginolyticus. Described as above. The class given is cell-based. The following applies: 16 hrs at 37° C., read-out: minimum inhibitory concentration (MIC). How it is done:
as §1

In test [1] the test system is Staphylococcus epidermidis. The description is as above. The class given is cell-based. As to conditions: 16 hrs at 37° C., read-out: minimum inhibitory concentration (MIC). How it is done: as §1
A further test deals with Escherichia coli DH5α. The test is described as above. It counts as cell-based. The following applies: 16 h, E. coli, 16 hrs at 37° C., read-out: minimum inhibitory concentration (MIC). Here is the method:
as §1

The test system of the next test is Vibrio anguillarum. The test is described as above. The class given is cell-based. As to conditions: 16 hrs at 37° C., read-out: minimum inhibitory concentration (MIC). How it is done:
as §1

A short description of test [2]: Antimicrobial test for surfactin, summary statement over the tested bacteria. The class given is cell-based. As to conditions: text summary of Table 2, all tested bacteria; read-out: minimum inhibitory concentration (MIC). Here is the method:
as §1

For test [3] the following is noted: literature value, test organism not given; cited from earlier work.

As for `CC(C)CCCCCCCCC[C@@H]1CC(=O)N[C@@H](CCC(=O)O)C(=O)N[C@@H](CC(C)C)C(=O)N[C@H](CC(C)C)C(=O)N[C@@H](C(C)C)C(=O)N[C@@H](CC(=O)O)C(=O)N[C@H](CC(C)C)C(=O)N[C@@H](CC(C)C)C(=O)O1` [Bacillus subtilis subsp. ATCC21332, surfactin] (EL[dL]VD[dL]L; linker N-C via X1), the MIC with Aeromonas hydrophila (Aeromonas hydrophila, 16 h) was 129 µM (≈ 133 µg/mL); with Vibrio salmonicida (Aliivibrio salmonicida, 16 h), 129 µM (≈ 133 µg/mL); in the test on Vibrio harveyi (16 h), 129 µM (≈ 133 µg/mL); with Vibrio alginolyticus (16 h), 129 µM (≈ 133 µg/mL); in test [1] (16 h) it was 129 µM (≈ 133 µg/mL); in the test on Escherichia coli DH5α it was 193 µM (≈ 200 µg/mL). For the same molecule, the MIC with Vibrio anguillarum (Vibrio anguillarum, 16 h) came out at 129 µM (≈ 133 µg/mL).
Take `CC(C)CCCCCCCCC[C@@H]1CC(=O)N[C@@H](CCC(=O)O)C(=O)N[C@@H](CC(C)C)C(=O)N[C@H](CC(C)C)C(=O)N[C@@H](C(C)C)C(=O)N[C@@H](CC(=O)O)C(=O)N[C@H](CC(C)C)C(=O)N[C@@H](CC(C)C)C(=O)O1` [High-yield mutant strain, surfactin] (EL[dL]VD[dL]L; linker N-C via X1): the MIC (in test [2]; with Aeromonas hydrophila; in the test with Vibrio salmonicida; in the test with Vibrio harveyi; in the test with Vibrio alginolyticus; in [1]) was 96.5 µM (≈ 100 µg/mL) throughout. Besides, the MIC in the test on Vibrio anguillarum is given as 96.5 µM (≈ 100 µg/mL).
As for `CC(C)CCCCCCCCC[C@@H]1CC(=O)N[C@@H](CCC(=O)O)C(=O)N[C@@H](CC(C)C)C(=O)N[C@H](CC(C)C)C(=O)N[C@@H](C(C)C)C(=O)N[C@@H](CC(=O)O)C(=O)N[C@H](CC(C)C)C(=O)N[C@@H](CC(C)C)C(=O)O1` [surfactin] (EL[dL]VD[dL]L; linker N-C via X1), the “minimum inhibitory concentration (MIC)” value in [3] is 50 mg/L (≈ 48.2 µM).
